Measured values as given in US20200124600A1, “METHODS OF TREATING AUTOIMMUNE AND INFLAMMATORY DISEASES” (Genentech, Inc., priority 2017, published 2020).

Key:
plasmablast signature [1] = assay: Plasmablast signature in blood of extra-renal lupus patients, EXPLORER clinical trial; format: in vivo, human; settings: for expression of the plasmablast signature compared to patients treated with azathioprine: screening samples
Procedure: (§1) Blood Sample Analysis: 3-gene plasmablast signature expression assay. Blood was collected in PAXgene RNA tubes (PreAnalytiX); total RNA was extracted using commercially available kits according to manufacturer instructions (Qiagen).
(§2) Alternatively, expression of candidate biomarker genes in blood samples was quantified by Fluidigm qPCR assays. 3-gene score was calculated from the mean of IgJ, TXNDC5 and MZB1, and normalized using reference gene TMEM55B. Blood samples were assessed using this assay developed on the Cobas 4800 platform (Roche Molecular Systems).
(§3) Plasmablast signature values were collected from two cohorts of moderate to severe lupus patients from phase II clinical trials assessing the safety and efficacy of rituximab in SLE. The cohorts were patients with either lupus nephritis (LUNAR) or extra-renal lupus (EXPLORER). Mixed effects modeling of plasmablast signature values over the course of treatment, incorporating covariates for age, race, concomitant medications, interferon activity, SLEDAI, visit, treatment arm and their interaction, with patient modeled as a random effect, identified a profound decrease in plasmablast signature specifically within the rituximab treated patients (FIG. 4A, 4B). This effect was most apparent in the time points two weeks after receiving rituximab infusion, with diminishing effect over time.
In the EXPLORER trial, patients were monitored for presence of antibodies directed against mouse-human chimeric antibodies (HACA). […] Using the same linear mixed effects model, as above, a 2.8-fold higher expression of plasmablast marker genes was found in patients that went on to develop HACA (p=0.0007).
Previous studies identified an association between different immunosuppressive treatments and reduced expression of plasmablast-associated genes.

plasmablast signature [2] = assay: Plasmablast signature in blood of lupus nephritis patients, LUNAR clinical trial; format: in vivo, human
Procedure: as §1, §2
as §3, with “time. […]” for “time.”

human memory B cells [3] = assay: CD40L induced plasmablast differentiation of memory B cells, flow cytometry; format: cell-based
Source text: It was confirmed that plasmablast differentiation was regulated by Bruton's Tyrosine Kinase (BTK) activity by performing an in vitro plasmablasts differentiation assay where human memory B cells were put into differentiating conditions, and were subsequently measured after 5 days using flow cytometry quantification for CD20^loCD38^++ plasmablasts. […] GDC-0852 is (S)-2-(5-Fluoro-2-(hydroxymethyl)-3-(1-methyl-5-(5-(2-methyl-4-(oxetan-3-y-1)piperazin-1-yl)pyridin-2-ylamino)-6-oxo-1,6-dihydropyridin-3-yl)-phenyl)-3,4,6,7,8,9-hexahydropyrido[3,4-b]indolizin-1(2H)-one, the structure of which is shown below:
Plasmablast Differentiation: Memory B cells were isolated from Healthy donor PBMC (Miltenyi Memory B cell isolation kit). […]
(§4) Statistical analyses were performed using either <> or custom scripts written in the R programming language. […] IC50 values for BTK inhibition was calculated using the GraphPad Prism software. […]
(§5) Results: The differentiation of B cells into plasmablast can occur through multiple activation stimuli and involves distinct molecular changes. […] We evaluated the effect of the BTK inhibitor GDC-0852 in the plasmablast differentiation process, either by a T cell-mediated response using CD40L stimulation or a T cell-independent response using the Toll-like receptor ligand, CpG.

human memory B cells [4] = assay: CpG-mediated plasmablast differentiation of memory B cells, flow cytometry; format: cell-based; settings: B-cell, memory B cells from healthy donors, ODN2006 5 ug/ml plus cytokines, n=3, read-out: IC50 potency, inhibition of CpG-mediated plasmablast differentiation
Procedure: (§6) Plasmablast Differentiation: Memory B cells were isolated from Healthy donor PBMC (Miltenyi Memory B cell isolation kit). For the Plasmablast differentiation, 1.5×10^5/ml memory B cells were then cultured in the presence of a cocktail of cytokines, IL-2(20 U/ml), IL-10 (50 ng/ml), IL-15(10 ng/ml), IL-6 (50 ng/ml), IFNa (10 ng/ml) and stimulated with either ODN2006 (TLR-9 ligand) 5 ug/ml, or CD40L (3 ug/ml) for 5 days. The plasmablast differentiation was carried out in the presence of vehicle alone (DMSO) and GDC-0852 at various concentrations, using a 3 fold dose titration of inhibitor starting at 10 uM. Flow cytometry was performed to enumerate ([…]) plasmablast percentages and assess the inhibition by GDC-0852.
as §4, §5

[5] = test system: plasmablast signature genes IgJ, MZB1, TXNDC5; assay: Plasmablast signature gene expression in differentiated memory B cells, Fluidigm quantitative RT-PCR; format: cell-based, human; settings: 370 nM vs DMSO, 5 days, n=4 donors
Procedure: FIGS. 8A, 8B, 8C and 8D. BTK inhibition reduces the plasmablast gene signature. Memory B cells from 4 healthy donors were differentiated into plasmablasts using conditions described above, in the presence of DMSO vehicle or 370 nM GDC-0852. Expression of plasmablast signature genes was measured by Fluidigm, and normalized to a housekeeping gene (HPRT1). Expression values are plotted as the relative transcript abundance to the housekeeping gene. The plasmablast signature was calculated as the geometric mean of the relative abundances of the three individual genes.
as §6
RNA Preparation: RNA was extracted from the cells in culture at 5 days from the DMSO and GDC-0852 (370 nM) treated cells (n=4). Cells were disrupting in RLT buffer using the Qiashredder (Qiagen, Valencia, Calif.) and then RNA was extracted using the RNeasy mini kit (Qiagen) including the on-column DNase digestion. The concentration of total RNA and integrity of RNA samples was determined using the NanoDrop 8000 (Thermo Scientific). The isolated RNA was used for the Fluidigm quantitative RT-PCR analyses.
QT PCR: cDNA synthesis was performed on 100 ng total-RNA using an iScript cDNA synthesis kit (Biorad, Hercules, Calif.). Gene-specific pre-amplification was performed (Applied Biosystems) for 3 genes (IgJ, MZB1, TXNDC5 including housekeeping genes TMEM55B. RT-PCR was performed using the BioMark 48.48 Dynamic Arrays (Fluidigm Corporation) using the manufacturer's protocol. Data were collected using the BioMark Data Collection Software and CT values were obtained using the BioMark RT-PCR Analysis Software (V.2.1.1, Fluidigm). The relative abundance (dCt) to HPRT1 was calculated: 2 log−(average Ct gene−average Ct HPRT1). For statistical analyses, values below the lower limit of detection were set to be 1 Ct lower than the lowest recorded value.
as §4

## CN(Cc1cnc2nc(N)nc(N)c2n1)c1ccc(C(=O)N[C@@H](CCC(=O)O)C(=O)O)cc1 [methotrexate]
Plasmablast signature [1]
  expression of the plasmablast signature compared to patients treated with azathioprine: much lower expression

## rituximab
Plasmablast signature [1]; HACA-positive patients
  change in plasmablast signature after treatment in patients that went on to develop anti-drug antibodies (HACA): limited to no decrease
Plasmablast signature [1]; week 28, two weeks following the fourth infusion, p=2×10^−11
  maximum decrease in plasmablast signature: 3.48 fold
Plasmablast signature [2]; week 28 time point, p=0.0011
  reduction of plasmablast signature expression: 3.31 fold

## COc1c(C)c2c(c(O)c1C/C=C(\C)CCC(=O)OCCN1CCOCC1)C(=O)OC2 [mycophenolate, mycophenolate mofetil]
Plasmablast signature [1]
  expression of the plasmablast signature compared to patients treated with azathioprine: much lower expression
Plasmablast signature [2]; baseline, relatively few patients in the MMF pool
  expression of plasmablast signature genes in patients on treatment at baseline: trend toward lower expression

## C[C@H]1CN(C2COC2)CCN1c1ccc(Nc2cc(-c3cc(F)cc(N4CCc5c(cc6n5CCCC6)C4=O)c3CO)cn(C)c2=O)nc1 [GDC-0852, (S)-2-(5-Fluoro-2-(hydroxymethyl)-3-(1-methyl-5-(5-(2-methyl-4-(oxetan-3-y-1)piperazin-1-yl)pyridin-2-ylamino)-6-oxo-1,6-dihydropyridin-3-yl)-phenyl)-3,4,6,7,8,9-hexahydropyrido[3,4-b]indolizin-1(2H)-one]
Human memory B cells [3]; Homo sapiens, B-cell, 120 h, memory B cells from healthy donors, CD40L 3 ug/ml plus cytokines, day 5, FACS, read-out: IC50 potency, inhibition of CD40L induced plasmablast differentiation
  IC50: 20 nM
Human memory B cells [3]; human memory B cells, measured after 5 days, CD20loCD38++ plasmablasts by flow cytometry
  inhibition of CD40L induced plasmablast differentiation: inhibited CD40L induced plasmablast differentiation in a dose-dependent manner
Human memory B cells [4]
  IC50: 48 nM
[5]; p=0.0023
  expression of plasmablast signature gene MZB1: significant decrease
[5]; p=0.0026
  composite plasmablast 3 gene signature: significant decrease
[5]; p=0.0032
  expression of plasmablast signature gene TXNDC5: significant decrease
[5]; p=0.011
  expression of plasmablast signature gene IgJ: significant decrease
